# According to patent US20040009464A1, “Methods for identifying compounds for inhibition of neoplastic lesions, and pharmacetical compositions containing such compounds” (priority 1998, published 2004):
# What was measured:
# [1] = system: HT-29 cells; assay: Apoptosis and necrosis by morphology (acridine orange/ethidium bromide) in HT-29 cells; format: cell-based, human; conditions: HT-29 treated for six days
# Source text: Apoptosis occurs naturally during normal tissue turnover and during embryonic development of organs and limbs. Apoptosis also is induced by cytotoxic T-lymphocytes and natural killer cells, by ionizing radiation and by certain chemotherapeutic drugs. Inappropriate regulation of apoptosis is thought to play an important role in many pathological conditions including cancer, AIDS, or Alzheimer's disease, etc. Compounds can be screened for induction of apoptosis using cultures of tumor cells maintained under conditions as described above. Treatment of cells with test compounds involves either pre- or post-confluent cultures and treatment for two to seven days at various concentrations. Apoptotic cells are measured in both the attached and “floating” compartments of the cultures. Both compartments are collected by removing the supernatant, trypsinizing the attached cells, and combining both preparations following a centrifugation wash step (10 minutes, 2000 rpm). The protocol for treating tumor cell cultures with sulindac and related compounds to obtain a significant amount of apoptosis has been described in the literature. […]
# The apoptosis inducing activity for a series of phosphodiesterase inhibitors was determined. […] Apoptosis and necrosis were determined morphologically after acridine orange and ethidium bromide labeling in accordance with the assay described, supra.
# [2] = system: premalignant lesions in mouse mammary gland organ culture; assay: Mammary gland organ culture model; format: cell-based; conditions: FIG. 17
# Source text: Test compounds identified by the above methods can be tested for antineoplastic activity by their ability to inhibit the incidence of pre-neoplastic lesions in a mammary gland organ culture system. This mouse mammary gland organ culture technique has been successfully used by other investigators to study the effects of known antineoplastic agents such as certain NSAIDs, retinoids, tamoxifen, selenium, and certain natural products, and is useful for validation of the screening method of the present invention.
# For example, female BALB/c mice can be treated with a combination of estradiol and progesterone daily, in order to prime the glands to be responsive to hormones in vitro. The animals are sacrificed, and thoracic mammary glands are excised aseptically and incubated for ten days in growth media supplemented with insulin, prolactin, hydrocortisone, and aldosterone. DMBA (7,12-dimethylbenz(a)anthracene) is added to medium to induce the formation of premalignant lesions Fully developed glands are then deprived of prolactin, hydrocortisone, and aldosterone, resulting in the regression of the glands but not the pre-malignant lesions.
# The test compound is dissolved in DMSO and added to the culture media for the duration of the culture period. At the end of the culture period, the glands are fixed in 10% formalin, stained with alum camine, and mounted on glass slides. The incidence of forming mammary lesions is the ratio of the glands with mammary lesions to […]. The incidence of mammary lesions in test compound treated glands is compared with that of the untreated glands.
# The extent of the area occupied by the mammary lesions can be quantitated by projecting an image of the gland onto a digitation pad. The area covered by the gland is traced on the pad and considered as 100% of the area. The space covered by each of the non-regressed structures is also outlined on the digitization pad and quantitated by the computer.
# Mammary gland organ culture experiment were performed as previously described (Mehta and Moon, Cancer Research, 46: 5832-5835, 1986). […]
# [3] = system: PKG in HCT116 colon cancer cells; assay: PKG activity assay on lysates of drug-treated HCT116 cells; format: cell-based
# Source text: To test the effect of cGMP-specific PDE inhibition on neoplasia containing the β-catenin mutation, HCT116 colon cancer celis were employed. HCT116 is known to contain the β-catenin mutation, but is known not to contain the APC mutation.
# The same procedure is used to grow the HCT116 cells as is used in the SW480 procedure described above. In this experiment, only exisulind and controls were used.
# [4] = Safety evaluation in exisulind clinical trials; format: in vivo
# Procedure: In these exisulind trials and several others involving the drug in other indications, safety was evaluated by monitoring adverse events (AEs), clinical laboratory tests (hematology, serum chemistry, and urinalysis), vital signs (blood pressure, pulse rate, respiratory rate, temperature, and weight), physical examination, and upper endoscopy.
# [5] = molecular target: T1, cGMP binding sites of GST-cGB-PDE5 fusion protein (Homo sapiens, UniProt O76074); assay: cGMP binding assay with GST-cGB-PDE5 fusion protein; conditions: FIG. 24
# T1 construct: made in house; host or cells: E. coli BL21 (DE3)
# T1 sequence (O76074 46-539 limits assumed): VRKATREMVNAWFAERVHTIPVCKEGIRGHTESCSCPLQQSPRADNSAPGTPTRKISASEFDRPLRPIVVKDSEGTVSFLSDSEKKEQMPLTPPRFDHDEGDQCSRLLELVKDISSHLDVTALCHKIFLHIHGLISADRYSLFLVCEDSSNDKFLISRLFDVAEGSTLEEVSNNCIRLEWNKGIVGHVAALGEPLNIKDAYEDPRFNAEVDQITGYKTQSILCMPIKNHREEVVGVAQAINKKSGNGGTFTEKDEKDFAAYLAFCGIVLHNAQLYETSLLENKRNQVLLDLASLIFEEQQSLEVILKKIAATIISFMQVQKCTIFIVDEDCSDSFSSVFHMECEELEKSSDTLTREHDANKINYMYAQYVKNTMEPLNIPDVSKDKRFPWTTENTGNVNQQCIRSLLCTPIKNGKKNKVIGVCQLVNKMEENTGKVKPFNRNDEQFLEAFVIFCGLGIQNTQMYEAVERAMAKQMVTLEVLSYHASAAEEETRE
structure (smiles),measurement,setting,value
"CC1=C(CC(=O)O)c2cc(F)ccc2/C1=C\c1ccc(S(C)(=O)=O)cc1 [Exisulind, 5-fluoro-2-methyl-1-(p-methylsulfonylbenzylidene)-3-indenylacetic acid]",apoptotic and necrotic cell death,[1],capable of causing apoptotic cell death without inducing necrosis
same,inhibition of premalignant lesions in mammary gland organ culture,[2],effectively inhibit the formation of premalignant lesions
same,PKG activity relative to control,[3],PKG that was phosphorylated to a greater extent than the corresponding controls
same,clinical safety,"[4]; human, in vivo",No outstanding safety issues have been demonstrated
same,dose-limiting adverse events,"[4]; human, in vivo",elevations in liver function tests
same,apoptosis rates in polyp and normal colonic tissues,[4]; paired biopsies in APC patients,"increased apoptosis rates in polyp, but not normal colonic tissues"
same,competition with cGMP (2 μM) in binding of GST-cGB-PDE5,[5],None of the PDE5 inhibitors showed any competition
